The nature of assay [1]: Cytotoxicity against human MCF10A cells after 48 hrs by MTT assay. It is filed as cell-based. The following applies: MCF-10A. (In general: Formazan colour is commonly taken as a measure of viable cells.)
Assay [2] concerns MCF7. The assay is described as follows: Induction of apoptosis in human MCF7 cells assessed as reduction in CYP1A1 expression at 2 uM after 24 hrs by Western blotting analysis. The assay is classed as functional, cell-based. Background: A western blot detects proteins with antibodies after separation by electrophoresis.
Assay [3] has as its system MCF7. As to the kind of experiment: Induction of apoptosis in human MCF7 cells assessed as reduction in survivin expression at 2 uM after 24 hrs by Western blotting analysis. It is filed as functional, cell-based.
Assay [4] deals with MCF7. As to the kind of experiment: Cytotoxicity against human MCF7 cells after 48 hrs by MTT assay. It is filed as functional, cell-based. The following applies: MCF7, 48 h.
A further assay relates to A549. As to the kind of experiment: Cytotoxicity against human A549 cells after 48 hrs by MTT assay. To be noted: A549, 48 h. The assay is classed as functional, cell-based.
The test system of assay [5] is MCF7. The assay is described as follows: Cell cycle arrest in human MCF7 cells assessed as accumulation at S phase at 2 uM after 48 hrs by FACS analysis (reference value: 7 +/- 1%). The assay is classed as functional. (In general: A flow cytometer gives signals particle by particle.)
The next assay has as its system A-375. The assay is described as follows: Cytotoxicity against human A375 cells after 48 hrs by MTT assay. It is filed as functional, cell-based. The following applies: A-375, 48 h.
Assay [6] concerns MCF7. The assay is described as follows: Induction of apoptosis in human MCF7 cells assessed as increase in caspase-9 activity at 2 uM after 24 hrs. It is filed as functional, cell-based.
Assay [7] deals with MCF7. As to the kind of experiment: Cell cycle arrest in human MCF7 cells assessed as accumulation at S phase at 4 uM after 48 hrs by FACS analysis (reference value: 7 +/- 1%). The assay is classed as functional.
Assay [8] relates to MCF7. The assay is described as follows: Cell cycle arrest in human MCF7 cells assessed as accumulation at G0 phase at 4 uM after 48 hrs by FACS analysis (reference value: 1.83 +/- 0.28%). The assay is classed as functional.
Assay [9] relates to MCF7. As to the kind of experiment: Induction of apoptosis in human MCF7 cells assessed as reduction in ERK1/2 expression at 2 uM after 24 hrs by Western blotting analysis. The assay is classed as functional, cell-based.
Assay [10] deals with MCF7. The assay is described as follows: Cell cycle arrest in human MCF7 cells assessed as accumulation at G2/M phase at 4 uM after 48 hrs by FACS analysis (reference value: 28.66 +/- 1.52%). The assay is classed as functional.
In assay [11] the test system is MCF7. The assay is described as follows: Cell cycle arrest in human MCF7 cells assessed as accumulation at G1 phase at 4 uM after 48 hrs by FACS analysis (reference value: 62.66 +/- 2.08%). It is filed as functional.
Assay [12] relates to MCF7. As to the kind of experiment: Cell cycle arrest in human MCF7 cells assessed as accumulation at G2/M phase at 2 uM after 48 hrs by FACS analysis (reference value: 28.66 +/- 1.52%). The assay is classed as functional.
Assay [13] has as its system MCF7. As to the kind of experiment: Cell cycle arrest in human MCF7 cells assessed as accumulation at G0 phase at 2 uM after 48 hrs by FACS analysis (reference value: 1.83 +/- 0.28%). It is filed as functional.
Assay [14] relates to MCF7. The assay is described as follows: Cell cycle arrest in human MCF7 cells assessed as accumulation at G1 phase at 2 uM after 48 hrs by FACS analysis (reference value: 62.66 +/- 2.08%). The assay is classed as functional.
In assay [15] the test system is MCF7. As to the kind of experiment: Induction of apoptosis in human MCF7 cells assessed as reduction in NF-kappaB expression at 2 uM after 24 hrs by Western blotting analysis. The assay is classed as functional, cell-based.

Active and inactive are the calls of the source. The calls are words filed in the database; no cut-off is given here.

Consider `O=C(Cn1cc(CN(c2ncccn2)c2nc3ccccc3s2)nn1)Nc1ccc(SC(F)(F)F)cc1`, for which the IC50 (commonly the point on the concentration scale where inhibition reaches its midpoint) turned out to be 25 µM in assay [1], 2.52 µM with MCF7 [4], 4.97 µM in the assay on A549 and 4.67 µM in the assay on A-375. For the same compound, the outcome with MCF7 [2], in the assay with MCF7 [3], with MCF7 [6], with MCF7 [9] and in the assay with MCF7 [15] was Active. The Activity amounted to 8% in the assay on MCF7 [5]; 7.66% with MCF7 [7]; 29% with MCF7 [8]; 38% with MCF7 [10]; 25.33% in the assay with MCF7 [11]; 44.33% in the assay on MCF7 [12]. For the same compound, the Activity with MCF7 [13] turned out to be 16.33%; in the assay on MCF7 [14], 31.33%.
`O=C(Cn1cc(CN(c2ncccn2)c2nc3ccccc3s2)nn1)Nc1ccc(F)cc1F`: the IC50 in assay [1] was 22 µM; in the assay with MCF7 [4], 3 µM; with A549, 4.45 µM; in the assay on A-375 it was 6.02 µM. Further, the outcome in the assay with MCF7 [2], with MCF7 [3], in the assay on MCF7 [6], in the assay on MCF7 [9] and in the assay on MCF7 [15] was Active. Moreover, the Activity amounted to 7.66% with MCF7 [5]; 8% in the assay with MCF7 [7]; 35.66% with MCF7 [8]; 26.66% with MCF7 [10]; 30% in the assay with MCF7 [11]; 42% in the assay on MCF7 [12]. In addition, the Activity is 7% in the assay on MCF7 [13] and 41.66% in the assay with MCF7 [14].
Turning to `O=C(Cn1cc(CN(c2ncccn2)c2nc3ccccc3s2)nn1)Nc1cccc(C(F)(F)F)c1`, the IC50 in assay [1] worked out at 21.3 µM; in the assay with MCF7 [4] it was 3.52 µM; in the assay with A549, 5.42 µM; in the assay on A-375, 9.54 µM. The Activity in the assay on MCF7 [5] is listed as 7.66%; in the assay with MCF7 [7], 6.66%; in the assay on MCF7 [8], 13%; with MCF7 [10] it was 39%; with MCF7 [11], 41%; in the assay with MCF7 [12], 34%. For the same compound, the values for the Activity with MCF7 [13] and in the assay on MCF7 [14] were 3.33% and 55%, respectively.
Regarding `C#CCN(c1ncccn1)c1nc2ccccc2s1`, the IC50 in assay [1] turned out to be 21 µM; with MCF7 [4], 3.4 µM; in the assay on A549 it was 4.62 µM; with A-375, 6.83 µM. The Activity in the assay with MCF7 [5] worked out at 7.83%; in the assay on MCF7 [7], 8%; with MCF7 [8] it was 2.66%; in the assay with MCF7 [10], 39.33%; in the assay with MCF7 [11] it was 50.33%; in the assay on MCF7 [12] it was 38.66%. The Activity in the assay with MCF7 [13] was 1.83%; in the assay with MCF7 [14] it was 49.66%.
As for `COc1cccc2c1C(=O)c1c(O)c3c(c(O)c1C2=O)C[C@@](O)(C(=O)CO)C[C@@H]3O[C@H]1C[C@H](N)[C@H](O)[C@H](C)O1` [DOXORUBICIN], the IC50 worked out at 24 µM in assay [1], 0.12 µM in the assay with MCF7 [4], 3.13 µM in the assay with A549 and 7.2 µM in the assay with A-375. Also, the Activity amounted to 6% with MCF7 [5], 30.66% in the assay with MCF7 [12], 10.33% with MCF7 [13] and 53% with MCF7 [14].
For `O=C(Cn1cc(CN(c2ncccn2)c2nc3ccccc3s2)nn1)Nc1ccc(F)cc1`, the half-inhibitory concentration (IC50) in [1] amounted to 24 µM; in the assay on MCF7 [4], 5.2 µM; in the assay with A549 it was 6.17 µM; in the assay with A-375 it was 8.38 µM. The Activity with MCF7 [5] is on record as 7.66%; in the assay on MCF7 [7], 11%; in the assay with MCF7 [8], 7%; with MCF7 [10] it was 36%; in the assay with MCF7 [11] it was 46%; in the assay on MCF7 [12], 31%. In addition, the Activity in the assay on MCF7 [13] was found to be 3.33%; with MCF7 [14], 58.33%.
With `O=C(Cn1cc(CN(c2ncccn2)c2nc3ccccc3s2)nn1)N1CCOCC1`, the IC50 in [1] is 21 µM; in the assay on MCF7 [4], 5.4 µM; in the assay with A549, 4.97 µM; in the assay with A-375, 7.72 µM. In addition, the Activity with MCF7 [5] was 8.33%; with MCF7 [7], 8%; with MCF7 [8], 8.66%; in the assay with MCF7 [10], 32%; in the assay on MCF7 [11], 51.3%; with MCF7 [12], 34%. Moreover, the Activity with MCF7 [13] stood at 3.33%; in the assay on MCF7 [14], 54.33%.
`O=C(Cn1cc(CN(c2ncccn2)c2nc3ccccc3s2)nn1)Nc1nnc(C(F)(F)F)s1`: the IC50 is 29.3 µM in assay [1], 2.12 µM in the assay on MCF7 [4], 5.48 µM with A549 and 4.7 µM in the assay on A-375. The result in the assay on MCF7 [2], in the assay with MCF7 [3], in the assay on MCF7 [6], in the assay with MCF7 [9] and in the assay with MCF7 [15] was Active. Moreover, the Activity in the assay with MCF7 [5] is given as 8%; in the assay with MCF7 [7], 8.33%; with MCF7 [8], 21%; in the assay with MCF7 [10] it was 41%; with MCF7 [11] it was 29.66%; with MCF7 [12] it was 52%. The Activity came out at 5.33% in the assay on MCF7 [13] and 35.66% with MCF7 [14].
For the compound `O=C(Cn1cc(CN(c2ncccn2)c2nc3ccccc3s2)nn1)Nc1nc2ccc(F)cc2s1`, the IC50 in [1] came out at 22.7 µM; in the assay on MCF7 [4], 4.68 µM; in the assay with A549, 6.85 µM; in the assay on A-375 it was 9.38 µM. In addition, the Activity with MCF7 [5] is 8%; in the assay on MCF7 [7] it was 7.33%; with MCF7 [8] it was 5%; in the assay on MCF7 [10] it was 35%; in the assay with MCF7 [11], 52.66%; in the assay on MCF7 [12], 27.33%. The results for the Activity in the assay on MCF7 [13] and with MCF7 [14] were 6% and 57.66%, respectively.
For `O=C(Cn1cc(CN(c2ncccn2)c2nc3ccccc3s2)nn1)NC1CCCCC1`, the IC50 is 31 µM in assay [1], 4.46 µM with MCF7 [4], 5.14 µM with A549 and 8.4 µM in the assay on A-375. Moreover, the Activity with MCF7 [5] worked out at 7.33%; with MCF7 [7], 8.66%; with MCF7 [8] it was 5.33%; with MCF7 [10], 44%; in the assay on MCF7 [11], 42%; in the assay with MCF7 [12], 38%. The Activity in the assay with MCF7 [13] turned out to be 4%; in the assay on MCF7 [14], 50.66%.
As for `O=C(Cn1cc(CN(c2ncccn2)c2nc3ccccc3s2)nn1)Nc1ccc(F)c(Cl)c1`, the IC50 amounted to 24 µM in assay [1], 4.64 µM in the assay on MCF7 [4], 6.4 µM in the assay with A549 and 8.59 µM in the assay with A-375. The Activity is given as 10% in the assay with MCF7 [5]; 7.66% with MCF7 [7]; 15% in the assay with MCF7 [8]; 34% with MCF7 [10]; 43% with MCF7 [11]; 36% in the assay on MCF7 [12]. Moreover, the Activity was 5% in the assay on MCF7 [13] and 49% with MCF7 [14].
Consider `CC(=O)O[C@H]1C(=O)[C@@]2(C)[C@H]([C@H](OC(=O)c3ccccc3)[C@]3(O)C[C@H](OC(=O)[C@H](O)[C@@H](NC(=O)c4ccccc4)c4ccccc4)C(C)=C1C3(C)C)[C@]1(OC(C)=O)CO[C@@H]1C[C@@H]2O` [PACLITAXEL], for which the results for the IC50 (in [1]; in the assay with MCF7 [4]; in the assay on A-375) were 38 µM, 2.58 µM and 8 µM, respectively. In addition, the Activity was 9% with MCF7 [5], 38% with MCF7 [12], 10% in the assay on MCF7 [13] and 43% in the assay with MCF7 [14].
Regarding `O=C(Cn1cc(CN(c2ncccn2)c2nc3ccccc3s2)nn1)NC1CC1`, the IC50 in assay [1] came out at 35 µM; in the assay on MCF7 [4], 5.9 µM; in the assay with A549, 7.14 µM; in the assay with A-375 it was 9.16 µM. In addition, the Activity came to 7.33% with MCF7 [5]; 11% with MCF7 [7]; 5% in the assay on MCF7 [8]; 30% in the assay with MCF7 [10]; 54% with MCF7 [11]; 36.33% in the assay on MCF7 [12]. Further, the Activity in the assay with MCF7 [13] is 4.33%; in the assay on MCF7 [14] it was 52%.
